Laboratory results: DBAASP
≈ marks a conversion by molar mass, not a printed value. One block for each compound: values may come before it.

Tests used:
Test in all cases: ≥ marks a high value that may be exact or a test limit, other limits are often not marked, values filed in µg/mL are converted to µM
[1] = test system: Escherichia coli DH5alpha
[2] = test system: Franconibacter helveticus DSM 18396
[3] = test system: Kocuria rhizophila DSM 348
[4] = test system: Bacillus subtilis DSM 347
[5] = test system: Pseudomonas aeruginosa ATCC 9027
[6] = test system: Escherichia coli ATCC 35218
[7] = test system: Bacillus cereus ATCC 11778
[8] = test system: Staphylococcus aureus ATCC 25923
[9] = test system: Xanthomonas axonopodis pv. glycines ISBF 327
[10] = test system: Escherichia coli ATCC 25922
[11] = test system: Lactococcus lactis AS1.1690
[12] = test system: Enterococcus faecium CGMCC 1.2334
[13] = test system: Enterococcus faecalis CGMCC 1.595
[14] = test system: Staphylococcus aureus AS1.72
Bacillus cereus AS1.126 = test system: Bacillus cereus AS1.126
Escherichia coli AS1.349 = test system: Escherichia coli AS1.349
[15] = test system: Pseudomonas aeruginosa CGMCC 1.860
[16] = test system: Pseudomonas syringae pv. tomato DC3000
[17] = test system: Pseudomonas corrugata DSM 7228
Cladosporium herbarum = test system: Cladosporium herbarum
[18] = test system: Pseudomonas syringae pv. syringae DSM 10604
[19] = test system: Xanthomonas vesicatoria DSM 50861
[20] = test system: Clavibacter michiganensis subsp. michiganensis DSM 46294
Botrytis cinerea = test system: Botrytis cinerea
Alternaria alternata = test system: Alternaria alternata
[21] = test system: Pectobacterium carotovorum subsp. carotovorum DSM 30168

Structure (SMILES): CC[C@H](C)[C@H](NC(=O)CN)C(=O)NCC(=O)N[C@@H](CCCCN)C(=O)N[C@@H](C)C(=O)N[C@@H](CC(C)C)C(=O)N[C@@H](Cc1cnc[nH]1)C(=O)N[C@@H](CO)C(=O)N[C@@H](C)C(=O)N[C@@H](CCCCN)C(=O)N[C@@H](CCCCN)C(=O)N[C@@H](Cc1ccccc1)C(=O)NCC(=O)N[C@@H](CCCCN)C(=O)N[C@@H](C)C(=O)N[C@@H](Cc1ccccc1)C(=O)N[C@H](C(=O)NCC(=O)N[C@@H](CCC(=O)O)C(=O)N[C@H](C(=O)N[C@@H](CCSC)C(=O)N[C@@H](CC(N)=O)C(=O)N[C@@H](CO)C(=O)O)[C@@H](C)CC)C(C)C [GIGKALHSAKKFGKAFVGEIMNS]
- MIC [1]: ≥ 128 µM
- MIC [2]: ≥ 128 µM
- MIC [3]: ≥ 256 µM
- MIC [4]: ≥ 32 µM

Structure (SMILES): CC[C@H](C)[C@H](NC(=O)CN)C(=O)NCC(=O)N[C@@H](CCCCN)C(=O)N[C@@H](Cc1ccccc1)C(=O)N[C@@H](CC(C)C)C(=O)N[C@@H](Cc1cnc[nH]1)C(=O)N[C@@H](CO)C(=O)N[C@@H](C)C(=O)N[C@@H](CCCCN)C(=O)N[C@@H](CCCCN)C(=O)N[C@@H](Cc1ccccc1)C(=O)N[C@@H](C)C(=O)N[C@@H](CCCCN)C(=O)N[C@@H](C)C(=O)N[C@@H](Cc1ccccc1)C(=O)N[C@H](C(=O)NCC(=O)N[C@@H](CCC(=O)O)C(=O)N[C@H](C(=O)N[C@@H](CCSC)C(=O)N[C@@H](CC(N)=O)C(=O)N[C@@H](CO)C(=O)O)[C@@H](C)CC)C(C)C [GIGKFLHSAKKFAKAFVGEIMNS]
- MIC [1]: 16 µM (≈ 39.7 µg/mL)
- MIC [2]: 4 µM (≈ 9.92 µg/mL)
- MIC [3]: 8 µM (≈ 19.8 µg/mL)
- MIC [4]: 1 µM (≈ 2.48 µg/mL)

Structure (SMILES): CC(C)C[C@H](NC(=O)[C@@H](NC(=O)[C@H](CCCCN)NC(=O)[C@@H](N)CCCCN)C(C)C)C(=O)N[C@@H](CCCCN)C(=O)N[C@@H](C)C(=O)N[C@@H](C)C(=O)N[C@@H](C)C(N)=O [KKVLKAAA]
- MIC [5]: > 50 µM
- MIC [6]: ≥ 50 µM
- MIC [7]: ≥ 50 µM
- MIC [8]: > 50 µM

Structure (SMILES): CC(C)C[C@H](NC(=O)[C@H](CCC(N)=O)NC(=O)[C@H](CCCN=C(N)N)NC(=O)[C@H](CC(C)C)NC(=O)[C@H](CC(C)C)NC(=O)[C@@H](NC(=O)[C@H](CC(C)C)NC(=O)[C@@H](NC(=O)[C@H](CCCN=C(N)N)NC(=O)[C@H](CCCN=C(N)N)NC(=O)[C@H](CCCCN)NC(=O)[C@H](C)NC(=O)[C@@H](N)CC(C)C)C(C)C)[C@@H](C)O)C(=O)N[C@@H](CCCN=C(N)N)C(=O)N[C@@H](CCCN=C(N)N)C(=O)N[C@H](C(=O)N[C@@H](CO)C(=O)N1CCC[C@H]1C(=O)N[C@@H](CO)C(=O)N[C@@H](CO)C(N)=O)C(C)C [LAKRRVLTLLRQLRRVSPSS]
- MIC [9]: 2 µM (≈ 4.7 µg/mL)
- MIC [10]: 14 µM (≈ 32.9 µg/mL)

The next lines start with the values.

- MIC [9]: ≥ 42 µM
Structure (SMILES): CC[C@H](C)[C@H](NC(=O)[C@H](C)NC(=O)[C@@H]1CCCN1C(=O)[C@H](CCCN=C(N)N)NC(=O)[C@@H](N)CC(C)C)C(=O)N[C@@H](CC(C)C)C(=O)N[C@H](C(=O)N[C@@H](CCCN=C(N)N)C(=O)N[C@H](C(=O)N[C@@H](CCCCN)C(=O)NCC(=O)N[C@@H](CCCCN)C(=O)NCC(=O)N[C@@H](CC(C)C)C(N)=O)C(C)C)C(C)C [LRPAILVRVKGKGL]

- MIC [11]: 6.25 µM (≈ 8.98 µg/mL)
- MIC [12]: 6.25 µM (≈ 8.98 µg/mL)
- MIC [13]: 3.13 µM (≈ 4.5 µg/mL)
- MIC [14]: 12.5 µM (≈ 18 µg/mL)
- MIC (Bacillus cereus AS1.126): 6.25 µM (≈ 8.98 µg/mL)
- MIC (Escherichia coli AS1.349): 6.25 µM (≈ 8.98 µg/mL)
- MIC [15]: 3.13 µM (≈ 4.5 µg/mL)
Structure (SMILES): NC(N)=NCCC[C@H](NC(=O)[C@H](Cc1cnc[nH]1)NC(=O)[C@H](Cc1c[nH]c2ccccc12)NC(=O)[C@H](Cc1ccccc1)NC(=O)[C@H](CCCN=C(N)N)NC(=O)[C@H](CCCN=C(N)N)NC(=O)[C@H](Cc1c[nH]c2ccccc12)NC(=O)[C@H](Cc1cnc[nH]1)NC(=O)[C@@H](N)CCCN=C(N)N)C(=O)O [RHWRRFWHR]

- MIC [16]: 3.32 µM (≈ 5 µg/mL)
- MIC [17]: 26.6 µM (≈ 40 µg/mL)
- MIC (Cladosporium herbarum): 26.6 µM (≈ 40 µg/mL)
- MIC [18]: 26.6 µM (≈ 40 µg/mL)
- MIC [19]: 26.6 µM (≈ 40 µg/mL)
- MIC [20]: 13.3 µM (≈ 20 µg/mL)
- MIC (Botrytis cinerea): ≥ 66.4 µM
- MIC (Alternaria alternata): ≥ 66.4 µM
- MIC [21]: 26.6 µM (≈ 40 µg/mL)
Structure (SMILES): CC(C)[C@H](NC(=O)[C@H](C)NC(=O)[C@H](CCCN=C(N)N)NC(=O)[C@H](CCCCN)NC(=O)[C@H](C)NC(=O)[C@H](Cc1ccccc1)NC(=O)[C@H](CCCN=C(N)N)NC(=O)[C@H](C)NC(=O)[C@H](Cc1ccccc1)NC(=O)[C@H](CCCN=C(N)N)NC(=O)[C@H](CCCCN)NC(=O)[C@@H](N)CCCN=C(N)N)C(N)=O [RKRFARFAKRAV]
